Assays:
[1] = tested on: IKKα/β subunit; assay: TNFα induced phosphorylation of IKKα/β in sv-ECs, western blot; format: cell-based, human; conditions: 100 nm, 30 min; TNFα 1 ng/ml 15 min
Method: Mar-1. VSMCs and ECs were lysed in buffer (20 mM Tris-Hcl, 137 mM NaCl, 10% Glycerol, 1% NP-40) with protease and phosphatase inhibitors (Halt inhibitor capsules, Pierce, Inc) by sonication on ice. The lysates were instantly snap frozen in liquid nitrogen and thawed back later for western blotting. After centrifugation (15,000 g for 20 minutes), the whole cell extract (supernatant) was collected and was heated at 100° C. in Laemlli buffer for 6 minutes. Lysates were run on Mini-Protean TGX gels
(Biorad) and transferred on PVDF membranes which were probed with appropriate primary and secondary antibodies and visualized for quantitation using q-dot nanocrystals (Life Technologies, Inc).
Cells were pretreated with 100 nm of 7S/7R-Maresin-1 for 30 min, followed by TNFα (10 ng/ml for VSMC and 1 ng/ml for EC) for 15 min. Whole cell lysates were collected and probed for pan and phospho IKK (Cell Signaling Inc.).
FIG. 18. IKK-phospho and total IKK western blotting image is representative of three independent experiments. Bar graph represents net quantitative densitometry analysis. N=3. P≤0.05, One-way ANOVA with Dunnett's post hoc test. *: P≤0.05 compared to control, unpaired t-test. †: P≤0.05 compared to TNFα, unpaired t-test. Error bars: SEM.

[2] = tested on: rabbit femoral artery; assay: Rabbit femoral artery balloon injury, neointimal hyperplasia at 28 days; format: in vivo, New Zealand White Rabbits; conditions: 10 nM local; 28 days after injury; vehicle 0.38±0.04; P=0.002
Method: All animal experiments are performed under a protocol approved by University of California San Francisco Animal Care Committee. New Zealand White Rabbits (NZWR, Western Oregon Rabbit Company, Philomath, Oreg.) weighing 3 to 5 kg and maintained on a normal chow diet are used in all experiments. Animals are anesthetized for surgical procedures with intramuscular injection of ketamine (25 mg/kg) and xylazine (5 mg/kg), and maintained with inhalation of isoflurane. The balloon injury model is made as described by Conte et al. “Efficient repopulation of denuded rabbit arteries with autologous genetically modified endothelial cells,” Circulation. 1994; 89:2161-2169. Rabbits undergo bilateral external iliac and femoral artery injury with 2F Fogarty balloon catheter (Applied Medical Resources Corp. Rancho Santa Margarita, Calif.). After balloon injury RvD2 (10 nM, Cayman chemical, Ann Arbor, Mich.) is infused to luminal area of the right femoral artery and control vehicle (normal saline with 0.1% ethanol) is infused to the left femoral artery, and then left undisturbed for 20 minutes. For evaluation of acute effects the rabbits are euthanized at 3 days after injury by intravenous overdose of sodium Nembutal. The femoral arteries are harvested and cryosection is made for immunohistochemistry, and total RNA from treated and control tissue is isolated. […]

[3] = tested on: rabbit femoral arteries; assay: Rabbit femoral artery balloon injury, acute response at 3 days; format: in vivo, New Zealand White Rabbits
Method: All animal experiments are performed under a protocol approved by University of California San Francisco Animal Care Committee. New Zealand White Rabbits (NZWR, Western Oregon Rabbit Company, Philomath, Oreg.) weighing 3 to 5 kg and maintained on a normal chow diet are used in all experiments. Animals are anesthetized for surgical procedures with intramuscular injection of ketamine (25 mg/kg) and xylazine (5 mg/kg), and maintained with inhalation of isoflurane. The balloon injury model is made as described by Conte et al. “Efficient repopulation of denuded rabbit arteries with autologous genetically modified endothelial cells,” Circulation. 1994; 89:2161-2169. Rabbits undergo bilateral external iliac and femoral artery injury with 2F Fogarty balloon catheter (Applied Medical Resources Corp. Rancho Santa Margarita, Calif.). After balloon injury RvD2 (10 nM, Cayman chemical, Ann Arbor, Mich.) is infused to luminal area of the right femoral artery and control vehicle (normal saline with 0.1% ethanol) is infused to the left femoral artery, and then left undisturbed for 20 minutes. For evaluation of acute effects the rabbits are euthanized at 3 days after injury by intravenous overdose of sodium Nembutal. The femoral arteries are harvested and cryosection is made for immunohistochemistry, and total RNA from treated and control tissue is isolated. For evaluation of subacute responses regarding intimal hyperplasia the rabbits are euthanized at 28 days after injury and the tissue is perfusion-fixed in 10% formalin and processed as described by Conte et al. Arterioscler Thromb Vasc Biol. 2005; 25:2081-2087.
All the immunofluorescent staining is completed on 6-μm-thick frozen sections fixed by ice cold acetone for 10 minutes. Goat anti-mouse IgG conjugated with Alexa Fluor 488 or 568 (1:100, respectively, Invitrogen) is selected as secondary antibody. Anti-Ki67 (1:100, NCL-L-Ki67-MM1, Novocastra Laboratories, Newcastle upon Tyne, UK) is utilized for cell proliferation detection. […] The proportion of Ki67 is calculated by absolute positive cell number divided by DAPI positive nuclei. Leukocyte infiltration index is calculated as number of nuclei in CD45 positive area divided by total number of DAPI positive nuclei.
RvD1. […] Fluorescence was detected with TRITC filter allowing the detection of the DHE emission wavelength of 590-620 nm. The fluorescence lamp gain is standardized for all images and analyses. Fluorescence quantitation is performed using ImageJ analysis software (National Institute of Health, Bethesda, Md.). For VSMC the fluorescence intensity is determined for the DHE-stained control cells (no treatment control) from each experimental group and then individual treated cells from the same group are normalized to the corresponding value. […]

| SMILES | TNFα induced phosphorylation of IKKα/β subunit in human sv-ECs [1] | neointimal area [2] | Cell proliferation (Ki-67 staining index), % inhibition vs control ([3]; 10 nM intraluminal 20 minutes, 3 days after injury, P<0.01) | leukocyte infiltration (CD45 staining), % inhibition ([3]; 10 nM intraluminal 20 minutes, 3 days after injury, P<0.05) | TNF-α, MCP-1, and IL-1α expression in treated arteries vs vehicle (qPCR) ([3]; 10 nM intraluminal, 3 days after injury) | injury-induced ROS production (DHE staining), % inhibition ([3]; rabbit arteries 3 days after balloon injury, P<0.05) |
| --- | --- | --- | --- | --- | --- | --- |
| CC/C=C\C/C=C\C[C@H](O)\C=C/C=C/C=C/[C@@H](O)C/C=C\CCC(=O)O [7S-Maresin-1, 7S,14R-dihydroxydocosa-4Z,8E,10Z,12Z,16Z,19Z-hexaenoic acid] | Reduce | – | – | – | – | – |
| CC/C=C\C[C@H](O)[C@H](O)/C=C/C=C/C=C\C=C\[C@@H](O)C/C=C\CCC(=O)O [RvD2, resolvin D2] | – | 0.27±0.03 mm^2 | 51% | 41% | significant reductions | 43% |
